Experimental data from PMC12592400, “A unique inhibitor conformation selectively targets the DNA polymerase PolC of Gram-positive priority pathogens” (Nature Communications, 2025).
Several values for one entry are separate records, joined by “and”; a condition that tells them apart may be missing. Equal entries are not always repeated.

Assays:
Experiment in all cases: Real-time DNA primer extension assay
[1] = target: T1, E. coli Pol IIIα (Escherichia coli, UniProt P10443); format: biochemical; design: key to rate of activity (slope of fluorescence intensity change over time): slope of fluorescence intensity change per second (made positive); conditions: for rate of activity (slope of fluorescence intensity change over time): Fig. 1f source data, E. coli PolIIIα; for IC50: Fig. 1f, n = 3, read-out: PolIIIα IC50
T1 construct: made in house
Text: DnaE from E. coli was purified as described before[33],[34].
(§1) Polymerase activity was monitored in real-time[31],[32] with a 42-nt long 5’ carboxyfluorescein-labelled DNA oligonucleotide template strand (DNASP8_42) annealed to a 30-nt primer oligonucleotide (oMU014). Polymerase activity in this assay is monitored by measuring fluorescence quenching of the labelled DNA template as a result of primer extension by PolC (for details see Supplementary Fig. 1b, c). Both primers were HPLC purified. Primer extension assays were performed in Reaction Buffer (see Gel-based polymerase and exonuclease assays) supplemented with 0.5 mg/mL BSA, 0.05% Tween20 and 25 uM of each dNTP (SRB) in 384-well Black Round Bottom plates (Corning 4514). The polymerase was diluted in the SRB and incubated for at least 5 min in the presence of inhibitor or solvent, with a final solvent concentration of 1%. The reaction was initiated by the addition of an equal volume of DNA substrate in SRB as described below. Fluorescence emission data was collected with a BMG Labtech PHERAstar FSX reader for 30 min at room temperature.
(§2) Compounds were dispensed with an Echo acoustic liquid handler (Beckman Coulter). All compounds were dissolved to 1 mM and 10 mM stocks in 100% DMSO and transferred to Echo LDV or PP source plates (Labcyte, Inc., CA), then dispensed to 384-well plates with a Labcyte Echo550 or Echo650 acoustic dispenser at volumes of 2.5 to 100 nL per well. […] A Mantis microfluidic liquid dispenser (Formulatrix) was used to dispense 5 µL polymerase and 5 µL substrate DNA (individually diluted in SRB) per well. […] The final concentration of DNA was 70 nM.
(§3) Data were analysed and standard error of the means (SEM) determined in Prism 8.4.2 and 10.2.3 (GraphPad). Raw time-course polymerase activity was plotted against time, with SEM of triplicates determined. The rate of activity (represented by signal quenching) was determined during the first 8 min (linear stage) by calculating the slope of fluorescence intensity change (converted to a positive value) over time (in seconds). The slopes were then normalized to percentage activity (%); per ‘replicate range’, 100% activity was defined as polymerase activity in the absence of inhibitor (polymerase control), and 0% activity was determined in the absence of polymerase (DNA signal; negative control). The SEM was determined between ‘replicate ranges’. The IC50 was determined using the dose-response (inhibition) nonlinear regression ‘[Inhibitor] vs. response (three parameters)’ without constraints.

[2] = test system: E. faecium PolC^F1276L (exonuclease-inactivated); format: biochemical, Enterococcus faecium; conditions: versus wild-type PolC
Text: (§4) The genes for PolC (locus_tag: MIBBHLJO_01574) and DnaE (locus_tag: MIBBHLJO_00911) from E. faecium ATCC 700221 were codon-optimized for expression in E. coli and synthesized in vector pET28b by Twist Bioscience (San Francisco, CA). Expression constructs for variant PolC proteins were created with QuikChange Site-Directed Mutagenesis (Agilent) with oligonucleotides listed in Supplementary Table 3. F1276L, F1276S, and A1281T were introduced to assess the effect of these mutations on inhibition by ACX compounds. Mutations D972A and D974A were introduced to inactivate the polymerase activity and mutations D431A and E433A were introduced to inactivate the exonuclease activity (Fig. 1d, Supplementary Fig. 1).
as §1, §2, §3

[3] = test system: E. faecium PolC^F1276S (exonuclease-inactivated); format: biochemical, Enterococcus faecium; conditions: versus wild-type PolC
Text: as §4, §1, §2, §3

T1 sequence (P10443 whole entry): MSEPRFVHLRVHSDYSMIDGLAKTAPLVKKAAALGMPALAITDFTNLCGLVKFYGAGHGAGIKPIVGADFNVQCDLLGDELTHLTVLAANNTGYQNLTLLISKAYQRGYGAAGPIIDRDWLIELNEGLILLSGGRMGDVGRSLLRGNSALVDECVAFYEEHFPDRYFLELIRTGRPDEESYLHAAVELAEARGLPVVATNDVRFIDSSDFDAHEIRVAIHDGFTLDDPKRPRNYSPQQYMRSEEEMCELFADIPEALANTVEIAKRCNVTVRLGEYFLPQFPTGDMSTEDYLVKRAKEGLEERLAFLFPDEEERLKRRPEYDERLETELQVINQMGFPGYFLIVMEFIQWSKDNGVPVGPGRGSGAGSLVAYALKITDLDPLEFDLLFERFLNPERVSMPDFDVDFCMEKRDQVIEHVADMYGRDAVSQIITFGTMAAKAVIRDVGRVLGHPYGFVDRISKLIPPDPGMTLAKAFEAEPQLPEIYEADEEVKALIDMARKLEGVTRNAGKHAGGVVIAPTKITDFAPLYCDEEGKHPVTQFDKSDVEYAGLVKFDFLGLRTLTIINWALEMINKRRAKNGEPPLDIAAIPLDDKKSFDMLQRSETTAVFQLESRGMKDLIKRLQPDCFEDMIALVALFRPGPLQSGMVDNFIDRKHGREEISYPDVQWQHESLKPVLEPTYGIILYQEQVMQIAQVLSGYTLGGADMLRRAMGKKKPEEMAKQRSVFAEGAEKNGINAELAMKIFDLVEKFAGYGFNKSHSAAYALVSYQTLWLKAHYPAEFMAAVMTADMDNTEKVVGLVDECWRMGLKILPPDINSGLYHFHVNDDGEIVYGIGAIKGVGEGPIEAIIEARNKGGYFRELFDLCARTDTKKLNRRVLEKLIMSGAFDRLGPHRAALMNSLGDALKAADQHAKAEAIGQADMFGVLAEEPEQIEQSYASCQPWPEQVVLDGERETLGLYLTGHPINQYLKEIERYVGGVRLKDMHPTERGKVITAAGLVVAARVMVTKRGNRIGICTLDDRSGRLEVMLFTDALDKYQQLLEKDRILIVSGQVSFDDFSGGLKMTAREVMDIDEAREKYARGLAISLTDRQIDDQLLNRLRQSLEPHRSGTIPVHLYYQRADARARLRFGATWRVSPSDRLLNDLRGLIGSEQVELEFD

Structure (SMILES): O=c1[nH]c(NCc2ccc(Cl)c(Cl)c2)nc2ncn(CCN3CCOCC3)c12 [IBZ, N^2-(3,4-dichlorobenzyl)-7-(2-[1-morpholinyl]ethyl)guanine]
- rate of activity (slope of fluorescence intensity change over time) ([1]; inhibitor 2.5 uM): 18.2 and 16.5 and 13.6
- rate of activity (slope of fluorescence intensity change over time) ([1]; inhibitor 4 uM): 15.9 and 17.9 and 15.0
- rate of activity (slope of fluorescence intensity change over time) ([1]; inhibitor 12.5 uM): 25.0 and 21.1 and 24.7
- rate of activity (slope of fluorescence intensity change over time) ([1]; inhibitor 20 uM): 29.3 and 21.9 and 23.5
- rate of activity (slope of fluorescence intensity change over time) ([1]; inhibitor 30 uM): 26.6 and 21.8 and 26.2
- rate of activity (slope of fluorescence intensity change over time) ([1]; inhibitor 45 uM): 27.8 and 27.6 and 30.0
- rate of activity (slope of fluorescence intensity change over time) ([1]; inhibitor 67.5 uM): 28.5 and 30.7 and 23.6
- rate of activity (slope of fluorescence intensity change over time) ([1]; inhibitor 100 uM): 31.4 and 35.8 and 26.7
- IC50 [1]: > 100 µM
- increase of IC50 by the F1276L mutation [2]: > 48 fold
- increase in IC50 by the F1276S mutation [3]: > 48 fold

Structure (SMILES): O=c1[nH]c(NCc2ccc3c(c2)OC(F)(F)O3)nc2c(F)nn(CCO)c12 [ACX-801, 5-(((2,2-difluorobenzo[d][1,3]dioxol-5-yl)methyl)amino)-3-fluoro-1-(2-hydroxyethyl)-1,6-dihydro-7H-pyrazolo[4,3-d]pyrimidin-7-one]
- rate of activity (slope of fluorescence intensity change over time) ([1]; inhibitor 2.5 uM): 16.3 and 12.4 and 15.4
- rate of activity (slope of fluorescence intensity change over time) ([1]; inhibitor 4 uM): 16.6 and 16.5 and 16.7
- rate of activity (slope of fluorescence intensity change over time) ([1]; inhibitor 12.5 uM): 21.1 and 17.1 and 17.2
- rate of activity (slope of fluorescence intensity change over time) ([1]; inhibitor 20 uM): 17.9 and 17.4 and 20.0
- rate of activity (slope of fluorescence intensity change over time) ([1]; inhibitor 30 uM): 18.5 and 16.7 and 17.5
- rate of activity (slope of fluorescence intensity change over time) ([1]; inhibitor 45 uM): 13.8 and 14.5 and 13.7
- rate of activity (slope of fluorescence intensity change over time) ([1]; inhibitor 67.5 uM): 17.1 and 17.3 and 12.6
- rate of activity (slope of fluorescence intensity change over time) ([1]; inhibitor 100 uM): 15.2 and 13.3 and 12.6
- IC50 [1]: > 100 µM
- increase of IC50 by the F1276L mutation [2]: > 19 fold
- increase in IC50 by the F1276S mutation [3]: > 8 fold
